Assay results taken from US20230026232A1, “AHR INHIBITORS AND USES THEREOF” (Ikena Oncology, Inc., priority 2019, published 2023).

What was measured:
[1] = Phase 1 dose-escalation study: interim cohort pharmacokinetics; type: in vivo, human; conditions: for dose proportionality of PK: Cycle 2 Day 1 (C2D1)
Description: Serial blood samples are obtained to characterize the plasma PK of Compound A and its major active metabolites. The initial sampling strategy is based on the predicted human PK of this compound. If in the course of evaluating the PK, it is determined that an alternative sampling scheme would be more informative, then that alternative sampling scheme may be implemented if the total amount of blood and blood draws obtained for PK is not increased. Moreover, the total number of samples may be decreased at any time if the initial sampling scheme is considered unnecessarily intensive.
Interim cohort pharmacokinetics were assessed on parent (Compound A) and two active metabolites (Compound B and Compound C). […] Compound B metabolite ratio is increased on C2D1 in cohorts above 200 mg dosages. […] Without wishing to be bound or limited by theory, elimination rate limited kinetics likely contributing to the accumulation of Compound B through on-target inhibition of CYP1A1.

AHR = molecular target: T1, AHR (Homo sapiens, UniProt P35869); experiment: HepG2 DRE-Luc reporter assay, VAF347-stimulated luciferase expression; type: cell-based; parameters: endogenous in cells; host or cells: HepG2 DRE-Luc reporter cell line; conditions: 80 nM VAF347, n=2
T1 sequence (P35869 11-848): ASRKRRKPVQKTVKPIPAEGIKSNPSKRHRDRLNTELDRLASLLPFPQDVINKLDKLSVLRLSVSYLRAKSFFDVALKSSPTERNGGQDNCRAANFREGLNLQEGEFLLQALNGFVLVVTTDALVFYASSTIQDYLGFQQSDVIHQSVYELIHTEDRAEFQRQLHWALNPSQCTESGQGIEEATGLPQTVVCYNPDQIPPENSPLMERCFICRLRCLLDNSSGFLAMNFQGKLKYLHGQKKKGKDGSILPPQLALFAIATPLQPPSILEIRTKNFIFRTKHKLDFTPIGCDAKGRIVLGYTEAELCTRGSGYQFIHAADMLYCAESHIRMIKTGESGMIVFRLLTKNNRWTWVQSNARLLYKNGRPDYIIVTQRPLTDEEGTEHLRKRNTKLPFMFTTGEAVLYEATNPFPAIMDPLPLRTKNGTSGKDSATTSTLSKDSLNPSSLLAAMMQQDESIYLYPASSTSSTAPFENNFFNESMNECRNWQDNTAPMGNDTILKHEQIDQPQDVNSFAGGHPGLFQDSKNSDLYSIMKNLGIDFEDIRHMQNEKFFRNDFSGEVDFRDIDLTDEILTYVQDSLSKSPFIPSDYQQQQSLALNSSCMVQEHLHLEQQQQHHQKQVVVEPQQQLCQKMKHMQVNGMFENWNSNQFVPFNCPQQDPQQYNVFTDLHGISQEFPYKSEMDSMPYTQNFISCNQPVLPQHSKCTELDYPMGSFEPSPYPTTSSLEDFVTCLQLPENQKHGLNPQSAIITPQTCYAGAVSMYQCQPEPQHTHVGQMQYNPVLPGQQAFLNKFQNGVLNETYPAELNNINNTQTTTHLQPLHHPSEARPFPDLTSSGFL
Description: In vitro experiments were conducted to examine the inhibitory activity of Compound A for AHR-mediated transcriptional activation in the HepG2 DRE-Luc reporter cell line. This human hepatoma cell line stably expresses a luciferase reporter gene under control of AHR-responsive DRE enhancer elements (Han, 2004). HepG2 DRE-Luc reporter cells were treated with 80 nM VAF347 to activate AHR.
The inhibitory activity of the human Compound A metabolites, Compound B and Compound C was also determined in the HepG2 DRE-Luc cell line. Reporter cells were stimulated with 80 nM VAF347 and each metabolite at multiple concentrations.

ratio to Compound A (AUC) ([1]; 400 mg and 800 mg dose) | dose proportionality of PK [1] | IC50 (AHR) | ratio to Compound A on C2D1 ([1]; 400 mg and 800 mg dose) | accumulation with repeat dosing ([1]; repeat dosing above 200 mg) | AUC compared with Compound A ([1]; repeated dosing, 2/3 subjects at 400 and 800 mg) | Structure (SMILES)
15-20 % of parent | greater than dose proportional | 213 nM |  |  |  | C=C(C)c1cnn2c(N[C@@H]3CCc4[nH]c5ccccc5c4C3)nc(-c3cncc(F)c3)nc12 [Compound C]
 | greater than dose proportional | 23 nM | 1.3-1.4 × parent | Accumulation of Compound B observed | greater than Compound A | CC(C)(O)c1cnn2c(N[C@@H]3CCc4[nH]c5ccccc5c4C3)nc(-c3cncc(F)c3)nc12 [Compound B]
